Results as given in US20090011410A1, “METHOD FOR TAILORING ADMINISTRATION OF DRUGS BY QUANTITATION OF MRNA” (priority 2004, published 2009).

Test system: NOXA mRNA
Test: drug-induced NOXA mRNA expression in whole blood of healthy adults (SYBR green PCR screen)
Assay type: cell-based, human
Settings: 20 μM BLM or 100 μM VP-16, 4 hours at 37° C.; degree less than PUMA (FIG. 6)
Protocol: In 8-well strip microtubes, 1.4 μl of 50× concentrations of drugs or controls (phosphate buffered saline (PBS) or DMSO) were added, and stored at −20° C. until use. […] Seventy μl of fresh heparinized whole blood was added into each well in triplicate, and incubated at 37° C. for 2-8 hours with the cap closed. For radiation treatment, blood was stimulated at designated doses using cesium-137. After each treatment, 50 μl of whole blood was transferred to filterplates as described below.
The mRNA and cDNA were prepared from whole blood. In brief, home-made 96-well filterplates were placed over collection plates, and 150 μl 5 mM Tris, pH 7.4, was applied. Following centrifugation at 120×g for 1 min at 4° C., 50 μl of blood samples were applied to each well and immediately centrifuged at 120×g for 2 min at 4° C., followed by washing of each well with 300 μl PBS once with centrifugation at 2000×g for 5 min at 4° C. […] The Ct was determined by analytical software (SDS, ABI). […]
Quantitation of various mRNAs was conducted using the following method. […]

Molecule | NOXA induction
bleomycin [BLM] | induced in all individuals
COc1cc([C@@H]2c3cc4c(cc3[C@@H](O[C@@H]3O[C@@H]5CO[C@@H](C)O[C@H]5[C@H](O)[C@H]3O)[C@H]3COC(=O)[C@H]23)OCO4)cc(OC)c1O [VP-16, etoposide] | induced in all individuals
